From ChEMBL document CHEMBL3739422, “Hydroxytyrosol-Derived Compounds: A Basis for the Creation of New Pharmacological Agents for Cancer Prevention and Therapy” (J Med Chem, 2015)

Columns and labels:
HeLa = assay: Antioxidant activity in human HeLa cells assessed as reduction in iron-reactive oxidative stress preincubated for 4 hrs prior to FeSO4 addition measured after 1 hr by TBARS assay; type: functional; parameters: scale not given: the % may be the effect or the level left
Platelet [1] = assay: Inhibition of collagen-induced platelet aggregation in human whole blood preincubated for 10 mins prior to collagen addition measured after 10 mins by aggregometric analysis; type: functional, tissue-based
[2] = Cytotoxicity against human Caco2/TC7 cells assessed as growth inhibition at 5 uM after 24 hrs by WST-1 assay; type: functional; settings: Caco-2, 24 h, read-out: GI
[3] = Cytotoxicity against human Caco2/TC7 cells assessed as growth inhibition after 24 hrs by WST-1 assay; type: functional, cell-based; settings: Caco-2, 24 h
Rattus norvegicus [4] = assay: Inhibition of collagen-induced platelet aggregation in po dosed Wistar rat administered for 7 days measured after 1 hr post last dose by aggregometric analysis; type: functional; settings: read-out: ID50 (the source's name)
Rattus norvegicus [5] = assay: Inhibition of A23187-induced TXA2 synthesis in Wistar rat at 1 to 100 mg/kg, po qd administered for 7 days measured after 1 hr post last dose by enzyme immunoassay; type: functional
Rattus norvegicus [6] = assay: Induction of NO production in Wistar rat at 1 to 100 mg/kg, po qd administered for 7 days measured after 1 hr post last dose by enzyme immuno assay; type: functional
A549 = assay: Cytotoxicity against human A549 cells assessed as cell viability after 48 hrs by MTT assay; type: functional, cell-based; settings: A549, 48 h
MRC5 = assay: Cytotoxicity against human MRC5 cells assessed as cell viability after 48 hrs by MTT assay; type: cell-based; settings: MRC5, 48 h
[7] = Selectivity ratio of IC50 for human MRC5 cells to IC50 for human A549 cells; type: ADME, cell-based; settings: MRC5 cells versus A549 cells, read-out: Ratio IC50
THP-1 [8] = assay: Inhibition of LPS-induced TNFalpha production in human THP1 cells at 0.5 uM after 3 hrs by microplate reader analysis; type: functional; settings: THP-1, 3 h
THP-1 [9] = assay: Inhibition of LPS-induced TNFalpha production in human THP1 cells at 10 uM after 3 hrs by microplate reader analysis; type: functional; settings: THP-1, 3 h
THP-1 [10] = assay: Inhibition of LPS-induced TNFalpha production in human THP1 cells at 100 uM after 3 hrs by microplate reader analysis; type: functional; settings: THP-1, 3 h
Rattus norvegicus [11] = assay: Inhibition of collagen-induced platelet aggregation in Wistar rat at 20 mg/kg, po qd administered for 7 days measured after 1 hr post last dose by aggregometric analysis; type: functional
Rattus norvegicus [12] = assay: Inhibition of A23187-induced TXA2 synthesis in Wistar rat at 20 mg/kg, po qd administered for 7 days measured after 1 hr post last dose by enzyme immuno assay; type: functional
Rattus norvegicus [13] = assay: Inhibition of plasma lipid peroxide in Wistar rat at 20 mg/kg, po qd administered for 7 days measured after 1 hr post last dose by spectrophotometric analysis; type: functional
Rattus norvegicus [14] = assay: Induction of NO production in Wistar rat at 1 to 10 mg/kg, po qd administered for 7 days measured after 1 hr post last dose by enzyme immuno assay; type: functional
Platelet [15] = assay: Inhibition of collagen-induced platelet aggregation in human platelet rich plasma preincubated for 10 mins; type: functional, cell-free
Platelet [16] = assay: Inhibition of ADP-induced platelet aggregation in human platelet rich plasma preincubated for 10 mins; type: functional, cell-free

For `CCCCCCCC/C=C\CCCCCCCC(=O)OCCc1ccc(O)c(O)c1`, which Activity (HeLa) is on record?
The Activity was 38%.

With `CC(=O)OCCc1ccc(O)c(O)c1` as the compound, how does the IC50 (Platelet [1]) read?
Its IC50 is 10 µM.

What about the inhibition of growth at 5 µM [2] of the same compound?
The inhibition of growth at 5 µM was 20%.

And the Activity (HeLa)?
The Activity was 36%.

And the IC50 [3]?
Its IC50 is 32 µM.

And the ED50 (Rattus norvegicus [4])?
Its ED50 is 16.1 mg/kg/day.

And the “inhibition (INH)” value (Rattus norvegicus [5])?
Its value is 37%.

What about the “inhibition (INH)” value (Rattus norvegicus [6]) of the same compound?
Its value is 66%.

With `CCCCCCCCCCCCOCCc1ccc(O)c(O)c1` as the compound, how does the IC50 (A549) read?
The IC50 was 20 µM.

What about the IC50 (MRC5) of the same compound?
Its IC50 is 49 µM.

And the selectivity ratio [7]?
Its selectivity ratio is 2.46.

For `Oc1cc2c(cc1O)C(c1ccccc1)OCC2` (stereo not given), which inhibition at 0.5 µM (THP-1 [8]) is on record?
The inhibition at 0.5 µM was 30%.

And the inhibition at 10 µM (THP-1 [9])?
The inhibition at 10 µM was 60%.

What about the inhibition at 100 µM (THP-1 [10]) of the same compound?
Its inhibition at 100 µM is 80%.

Which IC50 (Platelet [1]) does the source give for `CCCCCCOCCc1ccc(O)c(O)c1` here?
Its IC50 is 0.1 µM.

What about the inhibition in vivo at 20 mg/kg (Rattus norvegicus [11]) of the same compound?
The inhibition in vivo at 20 mg/kg was 58.7%.

What about the inhibition in vivo at 20 mg/kg (Rattus norvegicus [12]) of the same compound?
The inhibition in vivo at 20 mg/kg was 58.7%.

And the inhibition in vivo at 20 mg/kg (Rattus norvegicus [13])?
Its inhibition in vivo at 20 mg/kg is 84.7%.

What does the source list for `CC(=O)Oc1ccccc1C(=O)O` [ASPIRIN]?
ED50 (Rattus norvegicus [4]): 2.42 mg/kg/day; inhibition (INH) (Rattus norvegicus [14]): 64%

For `OCCc1ccc(O)c(O)c1` [HYDROXYTYROSOL], which IC50 (Platelet [15]) is on record?
The IC50 was 67 µM.

What about the IC50 (Platelet [16]) of the same compound?
Its IC50 is 27 µM.

What about the ED50 (Rattus norvegicus [4]) of the same compound?
Its ED50 is 48.2 mg/kg/day.

And the “inhibition (INH)” value (Rattus norvegicus [5])?
Its value is 30%.

What about the “inhibition (INH)” value (Rattus norvegicus [6]) of the same compound?
Its value is 34.2%.
